Data: US7371766B2, “Curcumin analogs with anti-tumor and anti-angiogenic properties” (Emory University, priority 1999, dated 2008)
Where two headings read alike, the source gives them in different places.

Tests used:
HCT-116 = assay: cells; details: Homo sapiens, HCT-116, 48 h
OVCAR-8 = assay: cells; details: Homo sapiens, OVCAR-8, 48 h
DU-145 = assay: cells; details: Homo sapiens, DU-145, 48 h
TK-10 = assay: cells; details: Homo sapiens, TK-10, 48 h
UACC-62 = assay: cells; details: Homo sapiens, UACC-62, 48 h
MDA-N = assay: cells; details: Homo sapiens, 48 h
SW-620 = assay: cells; details: Homo sapiens, SW-620, 48 h
EKVX = assay: cells; details: Homo sapiens, 48 h
OVCAR-4 = assay: cells; details: Homo sapiens, OVCAR-4, 48 h
IGROV1 = assay: cells; details: Homo sapiens, IGROV-1, 48 h
RPMI-8226 = assay: cells; details: Homo sapiens, RPMI-8226, 48 h
NCI-H23 = assay: cells; details: Homo sapiens, NCI-H23, 48 h
SR = assay: cells; details: Homo sapiens, 48 h
MDA-MB-435 = assay: cells; details: Homo sapiens, MDA-MB-435, 48 h
MALME-3M = assay: cells; details: Homo sapiens, 48 h
K-562 = assay: cells; details: Homo sapiens, K562, 48 h
SF-295 = assay: cells; details: Homo sapiens, SF-295, 48 h
SK-MEL-2 = assay: cells; details: Homo sapiens, SK-MEL-2, 48 h
OVCAR-5 = assay: cells; details: Homo sapiens, OVCAR-5, 48 h
HS 578T = assay: cells; details: Homo sapiens, 48 h
HL-60 (TB) = assay: cells; details: Homo sapiens, HL-60, 48 h
RPMI-7951 human melanoma = assay: Neutral Red Assay, cell viability, RPMI-7951; details: Homo sapiens
SF-539 = assay: cells; details: Homo sapiens, SF-539, 48 h
M14 = assay: cells; details: Homo sapiens, M14, 48 h
SK-MEL-5 = assay: cells; details: Homo sapiens, SK-MEL-5, 48 h
HT29 = assay: cells; details: Homo sapiens, HT-29, 48 h
U251 = assay: cells; details: Homo sapiens, U-251, 48 h
A498 = assay: cells; details: Homo sapiens, A498, 48 h
BT-549 = assay: cells; details: Homo sapiens, BT-549, 48 h
[1] = test system: Sixty human tumor cell lines; assay: cells; details: 48 h
[2] = read-out: Median Growth Inhibitory Concentration (GI50)
[3] = read-out: Median Lethal Concentration (LC50)
[4] = RPMI-7951, 72 h, read-out: Neutral Red Uptake, %
[5] = RPMI-7951, read-out: Cell Viability

O=C(C=Cc1ccc(F)cc1F)C=Cc1ccc(F)cc1F [EF9, 1,5-Bis(2,4-difluorophenyl)penta-1,4-dien-3-one] was tested, and the GI50 (HCT-116; [2]) was 1.9 µM, the CC50 (HCT-116; [3]) was 7.7 µM and the GI50 (OVCAR-8; [2]) was 3.4 µM. For the same compound, the CC50 (OVCAR-8; [3]) was 85.3 µM, the GI50 (DU-145; [2]) was 2.1 µM and the CC50 (DU-145; [3]) was 29 µM. It also gave a GI50 (TK-10; [2]) of 17.9 µM, a CC50 (TK-10; [3]) of 56.5 µM and a GI50 (UACC-62; [2]) of 13.9 µM. It also gave a CC50 (UACC-62; [3]) of 52.8 µM, a GI50 (MDA-N; [2]) of 2.9 µM and a CC50 (MDA-N; [3]) of 33.2 µM. It also gave a GI50 (SW-620; [2]) of 3.2 µM, a CC50 (SW-620; [3]) of 62.6 µM and a GI50 (EKVX; [2]) of 11.8 µM. It also gave a CC50 (EKVX; [3]) of 49.1 µM, a GI50 (OVCAR-4; [2]) of 15.2 µM and a CC50 (OVCAR-4; [3]) of 61.6 µM. For the same compound, the GI50 (IGROV1; [2]) was 3.8 µM, the CC50 (IGROV1; [3]) was 46.2 µM and the GI50 (RPMI-8226; [2]) was 2.4 µM. The CC50 (RPMI-8226; [3]) was 95.6 µM, the GI50 (NCI-H23; [2]) was 12.3 µM and the CC50 (NCI-H23; [3]) was 62.3 µM. The GI50 (SR; [2]) was 1.2 µM, the CC50 (SR; [3]) was 77.9 µM and the GI50 (MDA-MB-435; [2]) was 3.2 µM. The CC50 (MDA-MB-435; [3]) was 35.9 µM, the GI50 (MALME-3M; [2]) was 17.8 µM and the CC50 (MALME-3M; [3]) was 73.4 µM. For the same compound, the GI50 (K-562; [2]) was 3.5 µM, the CC50 (K-562; [3]) was > 100 µM and the GI50 (SF-295; [2]) was 14.2 µM. The CC50 (SF-295; [3]) was 58.8 µM, the GI50 (SK-MEL-2; [2]) was 14.5 µM and the CC50 (SK-MEL-2; [3]) was 58.9 µM. The GI50 (OVCAR-5; [2]) was 20 µM, the CC50 (OVCAR-5; [3]) was 63.3 µM and the GI50 (HS 578T; [2]) was 9.9 µM. The CC50 (HS 578T; [3]) was > 100 µM, the GI50 (HL-60 (TB); [2]) was 4.2 µM and the CC50 (HL-60 (TB); [3]) was > 100 µM. It also gave a viability at 5 µM (RPMI-7951 human melanoma; [4]) of 88%, a viability at 20 µM (RPMI-7951 human melanoma; [4]) of 11% and a viability at 5 µM (RPMI-7951 human melanoma; [5]) of 92%. For the same compound, the viability at 20 µM (RPMI-7951 human melanoma; [5]) was 70%, the GI50 (SF-539; [2]) was 2.6 µM and the CC50 (SF-539; [3]) was 23.1 µM. It also gave a GI50 (M14; [2]) of 4.1 µM, a CC50 (M14; [3]) of 48.6 µM and a GI50 (SK-MEL-5; [2]) of 12.1 µM. It also gave a CC50 (SK-MEL-5; [3]) of 53.1 µM, a GI50 (HT29; [2]) of 4.1 µM and a CC50 (HT29; [3]) of 41.9 µM. For the same compound, the GI50 (U251; [2]) was 2.1 µM, the CC50 (U251; [3]) was 12.9 µM and the GI50 (A498; [2]) was 2.4 µM. The CC50 (A498; [3]) was 23 µM, the GI50 (BT-549; [2]) was 6.5 µM and the CC50 (BT-549; [3]) was 47.3 µM. The GI50 ([1]; read-out: Median Growth Inhibitory Concentration (GI50), Mean) was 7.2 µM and the CC50 ([1]; read-out: Median Lethal Concentration (LC50), Mean) was 52.5 µM.
